{
  "source": "patent US11800868B2",
  "about": "“Isoflavonoid compounds and use thereof” (Novozymes BioAg A/S, priority 2004, dated 2023)",
  "key": {"potato": {"test_system": "potato", "test": "Growth promotion of potato tubers with signals, field", "type": "in vivo", "procedure": "Notes: • 1. Microtubers (cv. Bintje, tuber size from 0.5-0.7 g) were soaked in each test solution overnight at 25° C. in the incubator. Treatment rate was 50 ml/treatment, and 50 ml water as control. • 2. […] Treated potato tubers were planted in soil 10-15 cm deep, 10 tubers in 10 M^2 plot and supplied 500 ml of water to each tuber in ground after planting. • 4. Planted date: Aug. 20, 2004 and harvested date: Oct. 15, 2004."}, "tomato": {"test_system": "tomato", "test": "Signal applied to tomato seedling roots transplanted into soil inoculated with soybean rhizobia (field)"}},
  "data": [
    {"smiles": "O=c1c(-c2ccc(O)cc2)coc2cc(O)cc(O)c12", "note": "[genistein]", "values": [
      {"measurement": "tuber size", "setting": "potato; 300-500 μM", "value": "larger tuber size"},
      {"measurement": "potato tuber yield increase over control", "setting": "potato; microtubers soaked in 300 μM solution overnight", "value": "up to 17.7%"},
      {"measurement": "Fruit/plot", "setting": "tomato; 100 ml at 1 μM/plant, Early", "value": 67.75},
      {"measurement": "Fruit/plot % vs ctrl", "setting": "tomato; 100 ml at 1 μM/plant, Early", "value": 16.81, "unit": "%"},
      {"measurement": "Kg/plot", "setting": "tomato; 100 ml at 1 μM/plant, Early", "value": 12.02, "unit": "Kg/plot"},
      {"measurement": "Kg/plot % vs ctrl", "setting": "tomato; 100 ml at 1 μM/plant, Early", "value": 15.47, "unit": "%"},
      {"measurement": "Fruit/plot", "setting": "tomato; 100 ml at 1 μM/plant, Normal", "value": 241.5},
      {"measurement": "Fruit/plot % vs ctrl", "setting": "tomato; 100 ml at 1 μM/plant, Normal", "value": 10.27, "unit": "%"},
      {"measurement": "Kg/plot", "setting": "tomato; 100 ml at 1 μM/plant, Normal", "value": 27.10, "unit": "Kg/plot"},
      {"measurement": "Kg/plot % vs ctrl", "setting": "tomato; 100 ml at 1 μM/plant, Normal", "value": 5.86, "unit": "%"},
      {"measurement": "Fruit/plot", "setting": "tomato; 100 ml at 10 μM/plant, Early", "value": 66.25},
      {"measurement": "Fruit/plot % vs ctrl", "setting": "tomato; 100 ml at 10 μM/plant, Early", "value": 14.22, "unit": "%"},
      {"measurement": "Kg/plot", "setting": "tomato; 100 ml at 10 μM/plant, Early", "value": 11.64, "unit": "Kg/plot"},
      {"measurement": "Kg/plot % vs ctrl", "setting": "tomato; 100 ml at 10 μM/plant, Early", "value": 11.82, "unit": "%"},
      {"measurement": "Fruit/plot", "setting": "tomato; 100 ml at 10 μM/plant, Normal", "value": 217.75},
      {"measurement": "Fruit/plot % vs ctrl", "setting": "tomato; 100 ml at 10 μM/plant, Normal", "value": "−0.57", "unit": "%"},
      {"measurement": "Kg/plot", "setting": "tomato; 100 ml at 10 μM/plant, Normal", "value": 25.91, "unit": "Kg/plot"},
      {"measurement": "Kg/plot % vs ctrl", "setting": "tomato; 100 ml at 10 μM/plant, Normal", "value": 1.21, "unit": "%"},
      {"measurement": "Fruit/plot", "setting": "tomato; 100 ml at 50 μM/plant, Early", "value": 71},
      {"measurement": "Fruit/plot % vs ctrl", "setting": "tomato; 100 ml at 50 μM/plant, Early", "value": 22.41, "unit": "%"},
      {"measurement": "Kg/plot", "setting": "tomato; 100 ml at 50 μM/plant, Early", "value": 12.85, "unit": "Kg/plot"},
      {"measurement": "Kg/plot % vs ctrl", "setting": "tomato; 100 ml at 50 μM/plant, Early", "value": 23.44, "unit": "%"},
      {"measurement": "Fruit/plot", "setting": "tomato; 100 ml at 50 μM/plant, Normal", "value": 198.5},
      {"measurement": "Fruit/plot % vs ctrl", "setting": "tomato; 100 ml at 50 μM/plant, Normal", "value": "−9.36", "unit": "%"},
      {"measurement": "Kg/plot", "setting": "tomato; 100 ml at 50 μM/plant, Normal", "value": 25.77, "unit": "Kg/plot"},
      {"measurement": "Kg/plot % vs ctrl", "setting": "tomato; 100 ml at 50 μM/plant, Normal", "value": 0.66, "unit": "%"}
    ]}
  ]
}
